From patent US20200024278A1, “COMPOSITION COMPRISING ANTIBIOTIC COMPOUND AND AN HETEROCYCLIC COMPOUND AND THEIR USE IN PREVENTING OR TREATING BACTERIAL INFECTIONS” (MUTABILIS, priority 2016, published 2020)
Where a name gives a salt, the structure may show the parent alone.

Columns and labels:
Assay in all cases: MIC, broth microdilution (CLSI), substance alone or ATB combined with compound at 4 or 8 μg/mL
ECO 190317 = type: cell-based, E. coli; conditions: ECO 190317; for MIC ATB combined with Example: Example @8 μg/ml
Procedure, shortened: (§1)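 Broth microdilution; ca-MHB; 5·10^5 CFU/mL; 35° C, 16-20 h; compound alone or fixed 4/8 μg/mL with antibiotic series; endpoint = no visible growth.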

ECO UFR39 = type: cell-based, E. coli; conditions: ECO UFR39; for MIC ATB combined with Example: Example @8 μg/ml
Procedure, shortened: as §1

KPN 6299 = type: cell-based, K. pneumoniae; conditions: Example @8 μg/ml
Procedure, shortened: as §1

KPN BAA-1898 = type: cell-based, K. pneumoniae; conditions: KPN BAA-1898; for MIC ATB combined with Example: Example @8 μg/ml
Procedure, shortened: as §1

KPN UFR42 = type: cell-based, K. pneumoniae; conditions: KPN UFR42; for MIC ATB combined with Example: Example @8 μg/ml
Procedure, shortened: as §1

ECL P99 = type: cell-based, E. cloacae; conditions: ECL P99; for MIC ATB combined with Example: Example @8 μg/ml
Procedure, shortened: as §1

PAE 105250 = type: cell-based, P. aeruginosa; conditions: PAE 105250; for MIC ATB combined with Example: Example @8 μg/ml
Procedure, shortened: as §1

PAE UFR48 = type: cell-based, P. aeruginosa; conditions: PAE UFR48; for MIC ATB combined with Example: Example @8 μg/ml
Procedure, shortened: as §1

PAE UFR90 = type: cell-based, P. aeruginosa; conditions: PAE UFR90; for MIC ATB combined with Example: Example @8 μg/ml
Procedure, shortened: as §1

SAU 29213 = type: cell-based, S. aureus; conditions: for MIC ATB combined with Example: SAU 29213, Example @8 μg/ml
Procedure, shortened: as §1

SPN 49619 = type: cell-based, S. pneumoniae; conditions: SPN 49619; for MIC ATB combined with Example: Example @8 μg/ml
Procedure, shortened: as §1

ABA UFR151 = type: cell-based, A. baumannii; conditions: Acinetobacter baumannii, substance alone, read-out: MIC
Procedure, shortened: as §1

ABA UFR160 = type: cell-based, A. baumannii; conditions: Acinetobacter baumannii, substance alone, read-out: MIC
Procedure, shortened: as §1

[1] = Escherichia coli, substance alone, read-out: MIC
[2] = Pseudomonas aeruginosa, substance alone, read-out: MIC

NCCCn1c2c(sc1=O)C1CN(C2)C(=O)N1OS(=O)(=O)O (stereo not shown) [Example 10, [5-(3-aminopropyl)-4,9-dioxo-3-thia-5,8,10-triaza-tricyclo[6.2.1.0^2,6]undec-2(6)-en-10-yl] hydrogen sulfate]
<=0.031 μg/mL: MIC ATB combined with Example (ECO UFR39; ATB ATM) | MIC ATB combined with Example (ECO UFR39; ATB FEP) | MIC ATB combined with Example (KPN 6299; ATB ATM) | MIC ATB combined with Example (KPN BAA-1898; ATB ATM) | MIC ATB combined with Example (KPN BAA-1898; ATB FEP) | MIC ATB combined with Example (KPN BAA-1898; ATB MEM) | MIC ATB combined with Example (KPN BAA-1898; ATB PIP) | MIC ATB combined with Example (KPN UFR42; ATB FEP) | MIC ATB combined with Example (SAU 29213; ATB MEM)
8 µg/mL: MIC ATB combined with Example (KPN UFR42; ATB FOS)
0.063 µg/mL: MIC ATB combined with Example (KPN 6299; ATB FEP) | MIC ATB combined with Example (KPN 6299; ATB MEM) | MIC ATB combined with Example (KPN UFR42; ATB ATM)
2 µg/mL: MIC (ECO UFR39; [1]) | MIC ATB combined with Example (KPN BAA-1898; ATB FOS) | MIC (ECL P99; Enterobacter cloacae, substance alone, read-out: MIC)
1 µg/mL: MIC ATB combined with Example (KPN 6299; ATB PIP) | MIC ATB combined with Example (SAU 29213; ATB PIP) | MIC (SPN 49619; Streptococcus pneumoniae, substance alone, read-out: MIC)
0.5 µg/mL: MIC (ECO 190317; [1]) | MIC ATB combined with Example (SAU 29213; ATB FEP)
<=0.125 μg/mL: MIC ATB combined with Example (SAU 29213; ATB FOS)
<0.031 µg/mL: MIC ATB combined with Example (ECO 190317; ATB ATM) | MIC ATB combined with Example (ECO 190317; ATB FEP) | MIC ATB combined with Example (ECO 190317; ATB MEM) | MIC ATB combined with Example (ECO 190317; ATB PIP) | MIC ATB combined with Example (ECO UFR39; ATB MEM) | MIC ATB combined with Example (ECO UFR39; ATB PIP) | MIC ATB combined with Example (ECL P99; ATB ATM) | MIC ATB combined with Example (ECL P99; ATB FEP) | MIC ATB combined with Example (ECL P99; ATB MEM) | MIC ATB combined with Example (ECL P99; ATB PIP) | MIC ATB combined with Example (PAE 105250; ATB ATM) | MIC ATB combined with Example (PAE 105250; ATB FEP) | MIC ATB combined with Example (PAE 105250; ATB MEM) | MIC ATB combined with Example (PAE 105250; ATB PIP) | MIC ATB combined with Example (PAE UFR48; ATB ATM) | MIC ATB combined with Example (PAE UFR48; ATB FEP) | MIC ATB combined with Example (PAE UFR48; ATB MEM) | MIC ATB combined with Example (PAE UFR48; ATB PIP) | MIC ATB combined with Example (PAE UFR90; ATB ATM) | MIC ATB combined with Example (PAE UFR90; ATB FEP) | MIC ATB combined with Example (PAE UFR90; ATB MEM) | MIC ATB combined with Example (PAE UFR90; ATB PIP) | MIC ATB combined with Example (SPN 49619; ATB ATM) | MIC ATB combined with Example (SPN 49619; ATB FEP) | MIC ATB combined with Example (SPN 49619; ATB MEM) | MIC ATB combined with Example (SPN 49619; ATB PIP)
4 µg/mL: MIC (PAE 105250; [2]) | MIC (PAE UFR48; [2]) | MIC (PAE UFR90; [2])
16 µg/mL: MIC (KPN BAA-1898; Klebsiella pneumoniae, BAA1898, substance alone, read-out: MIC)
> 32 µg/mL: MIC (KPN UFR42; Klebsiella pneumoniae, substance alone, read-out: MIC) | MIC (ABA UFR151) | MIC (ABA UFR160)
32 µg/mL: MIC ATB combined with Example (KPN 6299; ATB FOS) | MIC (SAU 29213; Staphylococcus aureus, substance alone, SAU 29213 (MSSA 29213), read-out: MIC)
>32 µg/mL: MIC ATB combined with Example (KPN UFR42; ATB MEM) | MIC ATB combined with Example (KPN UFR42; ATB PIP) | MIC ATB combined with Example (SAU 29213; ATB ATM)
<0.125 µg/mL: MIC ATB combined with Example (ECO 190317; ATB FOS) | MIC ATB combined with Example (ECO UFR39; ATB FOS) | MIC ATB combined with Example (ECL P99; ATB FOS) | MIC ATB combined with Example (PAE 105250; ATB FOS) | MIC ATB combined with Example (PAE UFR48; ATB FOS) | MIC ATB combined with Example (PAE UFR90; ATB FOS) | MIC ATB combined with Example (SPN 49619; ATB FOS)
